System: children with PFIC
Experiment: Pooled analysis of PEDFIC 1 and PEDFIC 2 (up to 48 weeks): safety
Assay type: in vivo, human
From the text: This example describes key outcomes with odevixibat in children with PFIC1 (familial intrahepatic cholestasis 1 [FIC1] deficiency) or PFIC2 ((bile salt export pump [BSEP] deficiency) based on pooled analysis of data from the phase 3 PEDFIC 1 (P1; NCT03566238) and PEDFIC 2 (P2; NCT03659916) studies. This pooled analysis covers up to 48 weeks of odevixibat treatment from P1 and through the planned P2 interim data cut. The following outcomes are described: change in serum bile acids (sBAs), change in pruritus score (measured using the PRUCISION scale; range: 0-4), evaluation of growth and sleep parameters, and safety monitoring. Mean changes in autotaxin (linked to cholestatic pruritus intensity) and plasma 7α-hydroxy-4-cholesten-3-one (p-C4; marker of bile acid synthesis) levels were also summarized.

Compound: CCCCC1(CCCC)CN(c2ccccc2)c2cc(SC)c(OCC(=O)N[C@@H](C(=O)N[C@@H](CC)C(=O)O)c3ccc(O)cc3)cc2S(=O)(=O)N1 [Odevixibat, 1,1-dioxo-3,3-dibutyl-5-phenyl-7-methylthio-8-(N-{(R)-α-[N-((S)-1-carboxypropyl)carbamoyl]-4-hydroxybenzyl}carbamoylmethoxy)-2,3,4,5-tetrahydro-1,2,5-benzothiadiazepine]
- patients with drug-related TEAEs (pooled P1+P2, 32 of 77 patients): 42%
- patients who experienced any TEAE (pooled P1+P2, 61 of 77 patients): 79%
- drug-related serious TEAEs (pooled P1+P2, 77 patients): no drug-related serious TEAEs were reported
- patients reporting severe TEAEs (pooled P1+P2, 77 patients): Eight
- patients with TEAEs leading to treatment discontinuation (pooled P1+P2, 77 patients): Four
- incidence of TEAEs (pooled P1+P2, BSEP subtype 1): 77%
- incidence of TEAEs (pooled P1+P2, BSEP subtype 2): 86%
- incidence of TEAEs (pooled P1+P2, patients with PFIC1, placebo in P1 85%): 80%
- incidence of TEAEs (pooled P1+P2, patients with PFIC2): 80%
- tolerability (pooled P1+P2, treatment for up to 48 weeks): well tolerated
